The results in this text go back to US8143889B2, “Simultaneous acquisitions of spin- and stimulated-echo planar imaging” (University of Utah Research Foundation, priority 2009, dated 2012).

Holding throughout (type): physicochemical
Data set [1] is described as follows: T1 and turbo-FLASH signal intensity on phantom with different concentrations of Gd-BOPTA. The protocol: The results are plotted in FIG. 12. […] The dosage 0.1˜0.2 mM [PBCA]/kg is the routine dosage for DCE-MRI and local concentrations may easily exceed 0.2˜0.4 mM/kg in organs with high-blood supply or at the periphery of a tumor. The signal behavior of the gradient-echo MRI varies widely with the selection of TR, TE, and flipangle, and for T1. Although a set of these imaging parameters may be linear for a small range of PBCA concentrations and specific T1, it will not be linear for other T1 values. […] Thus, direct conversion of SI to the concentration is subject to large error, which will be propagated into the subsequent kinetic calculation. In contrast, the realtime T1 mapping provided by embodiments of the invention described above is linearly related to the PBCA concentration. Thus, the realtime T1 mapping provides accurate realtime estimation of the PBCA concentration resulting in improvement of the accuracy of drug-delivery or tumor evaluation.

The nature of data set [2]: T1 mapping of MnCl2/water phantom by inversion-recovery spin-echo (IR-SE) imaging and 2D ss-SGSTEPI. The note with it: 3 Tesla. The protocol: (§1) MRI studies were performed on a Siemens Trio 3 Tesla MRI system (Siemens Medical Solutions, Erlangen, Germany) with Avanto gradients (45 mT/m strength and 150 T/m/s slew rate). The pulse sequence was developed based on a singleshot spin-echo EPI sequence, using the IDEA pulse sequence development environment. Realtime calculation of T1 mapping was implemented into a custom-made ICE program (Image Construction Environment). The image construction program produced two magnitude images, two phase images, and a T1 map for each slice.
A phantom was constructed with 4 plastic bottles filled with MnCl2/water solutions with concentrations of 0.05, 0.1, 0.2, and 0.4 mM, which were surrounded by jello. T1 mapping experiment was conducted using inversion-recovery spin-echo (IR-SE) imaging and 2D ss-SGSTEPI. T1 of each concentration of MnCl2/water solution were measured as 1.5, 0.89, 0.55, 0.35 sec for […], respectively.

The nature of data set [3]: T1 of MnCl2/water phantom by saturation-recovery spin-echo. The note with it: 3 Tesla. Here is the method: as §1
A phantom was constructed with four 20 cc plastic bottles filled with 0.05, 0.1, 0.2, and 0.4 mM MnCl2/water solutions, respectively, and immersed in jello in a rectangular acrylic container with dimensions 8×8×13 cm^3. The T1 of each concentration was 1.3, 0.9, 0.55, 0.35 sec for 0.05, 0.1, 0.2, 0.4 mM, respectively. T1 of the phantom was measured using saturation-recovery spin-echo.

Structures are written as SMILES.

On to `CNC[C@H](O)[C@@H](O)[C@H](O)[C@H](O)CO.CNC[C@H](O)[C@@H](O)[C@H](O)[C@H](O)CO.O=C([O-])CN(CCN(CC(=O)[O-])CC(=O)O)CCN(CC(=O)O)C(COCc1ccccc1)C(=O)[O-].[Gd+3]` (stereo not shown) [Gd-BOPTA, Gadobenate dimeglumine], for which the “T1 relaxation rate (1/T1) of the water proton vs. concentration” value in data set [1] (FIG. 12(b)) is “very linear with the concentration”. Further, the “signal intensities of turboFLASH and spin-EPI vs. concentration” value in data set [1] (TR/TE=7.2/2.7 ms, flipangle 30°, FIG. 12(a)) was “non-linear even at low concentration”.

On to `[Cl][Mn][Cl]` [MnCl2], for which the T1 in data set [2] (0.05 mM MnCl2/water solution) worked out at 1.5 s; in data set [2] (0.1 mM MnCl2/water solution), 0.89 s; in data set [2] (0.2 mM MnCl2/water solution), 0.55 s; in data set [2] (0.5 mM MnCl2/water solution), 0.35 s; in data set [3] (0.05 mM MnCl2/water solution), 1.3 s; in data set [3] (0.1 mM MnCl2/water solution) it was 0.9 s. The T1 was determined as 0.55 s in data set [3] (0.2 mM MnCl2/water solution) and 0.35 s in data set [3] (0.4 mM MnCl2/water solution).
